Results as given in ChEMBL document CHEMBL1201862, “PubChem BioAssay data set” (2004).
Values belong to the compound of their own block, whether it stands above or below them. Activity calls are given as the source filed them.

Legend:
[1] = toxicity to human hepatoma HepG2 cells – cell-based, cherry-picked samples, cytotoxicity control, dose response (AID 1159577); type: functional
[2] = P. falciparum Dd2 growth inhibitors, dose response, SYBR Green, cherry-picked samples (AID 1159567); type: functional, cell-based
[3] = molecular target: Glutathione-S-transferase (Schistosoma japonicum, UniProt Q26513); assay: GST-antibody interaction or FRET quenching – biochemical, TR-FRET, artefact control for Vif-APOBEC3G degradation inhibitor project, dose response (AID 1117362); type: functional
Glutathione-S-transferase, sequence (Q26513 whole entry): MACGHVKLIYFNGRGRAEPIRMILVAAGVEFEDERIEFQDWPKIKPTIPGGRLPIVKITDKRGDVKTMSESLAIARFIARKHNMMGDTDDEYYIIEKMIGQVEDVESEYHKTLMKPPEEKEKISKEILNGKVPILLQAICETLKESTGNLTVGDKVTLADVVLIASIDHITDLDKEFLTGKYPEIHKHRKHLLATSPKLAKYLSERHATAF

[4] = molecular target: T1, Bcl-2-like protein 10 (Homo sapiens, UniProt Q9HD36); assay: Bcl-B/TR3 peptide binding disruption – biochemical, fluorescence polarization, FITC-TR3 peptide, selectivity assay for Bfl-1 inhibitor project, primary screen (AID 748);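 further: fluorescence polarization from a fluorescein-labelled TR3 peptide binding purified Bcl-B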
T1 sequence (Q9HD36 whole entry): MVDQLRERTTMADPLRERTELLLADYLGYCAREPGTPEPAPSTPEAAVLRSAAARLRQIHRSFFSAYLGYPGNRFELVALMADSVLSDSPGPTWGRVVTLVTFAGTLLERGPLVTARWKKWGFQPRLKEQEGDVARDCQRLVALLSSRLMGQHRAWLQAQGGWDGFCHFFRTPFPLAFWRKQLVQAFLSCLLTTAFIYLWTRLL

[5] = PAX8-dependent cell viability loss – plate reader, dry powder, dose response (AID 743049); type: functional, cell-based
[6] = OV-90 cell viability loss – plate reader, dry powder, SA8, PAX8 inhibitor project, dose response (AID 743149); type: functional, cell-based
[7] = IGROV1 cell killing – plate reader, dry powder samples, PAX8 inhibitor project, dose response (AID 743043); type: functional, cell-based; details: IGROV-1
[8] = COV434 cell viability loss – plate reader, dry powder, SA7, cytotoxicity control for PAX8 inhibitor project, dose response (AID 743145); type: functional, cell-based
[9] = OVCAR-3 cell viability loss – plate reader, dry powder samples, PAX8 inhibitor project, dose response (AID 743044); type: functional, cell-based
[10] = molecular target: Phospholipase D2 (Homo sapiens, UniProt O14939); assay: PLD2 Cellular Concentration Response Study.; type: functional
Phospholipase D2, sequence (O14939 whole entry): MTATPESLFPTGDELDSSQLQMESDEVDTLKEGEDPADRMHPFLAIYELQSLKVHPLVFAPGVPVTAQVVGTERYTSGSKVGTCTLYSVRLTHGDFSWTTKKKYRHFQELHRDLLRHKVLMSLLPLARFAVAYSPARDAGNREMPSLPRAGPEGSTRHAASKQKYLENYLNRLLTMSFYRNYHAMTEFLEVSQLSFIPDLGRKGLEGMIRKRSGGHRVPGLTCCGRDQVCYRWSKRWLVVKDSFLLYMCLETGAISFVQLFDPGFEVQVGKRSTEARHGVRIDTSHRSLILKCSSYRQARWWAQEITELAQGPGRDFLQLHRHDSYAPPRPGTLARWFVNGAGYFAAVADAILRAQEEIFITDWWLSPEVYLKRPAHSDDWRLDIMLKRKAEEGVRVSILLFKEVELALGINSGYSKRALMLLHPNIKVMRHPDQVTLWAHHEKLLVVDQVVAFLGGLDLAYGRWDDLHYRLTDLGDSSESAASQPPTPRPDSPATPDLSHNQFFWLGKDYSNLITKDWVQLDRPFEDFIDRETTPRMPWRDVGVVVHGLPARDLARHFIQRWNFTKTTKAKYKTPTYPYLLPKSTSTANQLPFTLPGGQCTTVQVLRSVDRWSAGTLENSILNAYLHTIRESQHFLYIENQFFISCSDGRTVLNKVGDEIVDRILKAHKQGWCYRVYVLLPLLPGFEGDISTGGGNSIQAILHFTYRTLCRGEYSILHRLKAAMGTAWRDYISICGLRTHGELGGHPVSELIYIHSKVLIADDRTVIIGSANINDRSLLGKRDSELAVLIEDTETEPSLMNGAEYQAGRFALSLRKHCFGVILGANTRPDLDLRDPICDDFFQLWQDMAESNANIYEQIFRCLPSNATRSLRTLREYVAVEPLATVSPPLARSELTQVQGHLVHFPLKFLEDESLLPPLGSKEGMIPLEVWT

[11] = molecular target: Phospholipase D1 (Homo sapiens, UniProt Q13393); assay: PLD1 Cellular Concentration Response Study.; type: functional
Phospholipase D1, sequence (Q13393 whole entry): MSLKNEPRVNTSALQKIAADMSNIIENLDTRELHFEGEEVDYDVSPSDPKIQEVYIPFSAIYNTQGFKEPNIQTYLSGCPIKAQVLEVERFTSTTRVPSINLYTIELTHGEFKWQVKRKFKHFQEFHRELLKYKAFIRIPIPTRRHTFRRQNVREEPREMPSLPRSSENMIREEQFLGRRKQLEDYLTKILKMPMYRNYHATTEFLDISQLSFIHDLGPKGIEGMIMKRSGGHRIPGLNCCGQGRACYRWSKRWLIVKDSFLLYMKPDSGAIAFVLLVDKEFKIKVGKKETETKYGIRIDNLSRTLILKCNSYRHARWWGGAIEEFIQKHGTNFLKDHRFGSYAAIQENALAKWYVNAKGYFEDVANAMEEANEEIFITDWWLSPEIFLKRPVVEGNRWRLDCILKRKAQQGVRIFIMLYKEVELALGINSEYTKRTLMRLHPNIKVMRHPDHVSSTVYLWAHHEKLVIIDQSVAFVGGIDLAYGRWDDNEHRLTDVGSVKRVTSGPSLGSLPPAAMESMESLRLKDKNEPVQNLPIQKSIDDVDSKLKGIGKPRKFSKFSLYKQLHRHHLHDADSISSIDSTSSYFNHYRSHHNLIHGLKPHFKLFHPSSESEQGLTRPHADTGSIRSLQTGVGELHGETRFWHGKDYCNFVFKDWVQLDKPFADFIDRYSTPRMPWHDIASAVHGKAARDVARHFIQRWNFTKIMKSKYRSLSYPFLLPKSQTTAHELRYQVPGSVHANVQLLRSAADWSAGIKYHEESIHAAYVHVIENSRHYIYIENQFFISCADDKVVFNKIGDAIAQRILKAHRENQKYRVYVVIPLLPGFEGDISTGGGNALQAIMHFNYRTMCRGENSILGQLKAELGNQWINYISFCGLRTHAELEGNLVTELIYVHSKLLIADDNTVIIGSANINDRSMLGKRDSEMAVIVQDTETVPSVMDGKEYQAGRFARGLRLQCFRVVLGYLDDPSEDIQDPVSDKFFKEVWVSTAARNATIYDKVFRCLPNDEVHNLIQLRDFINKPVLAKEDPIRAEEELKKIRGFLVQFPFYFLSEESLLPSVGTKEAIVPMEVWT

[12] = molecular target: T2, Mitochondrial peptide methionine sulfoxide reductase (Bos taurus, UniProt P54149); assay: Absorbance-based biochemical high throughput dose response assay for activators of Methionine sulfoxide reductase A (MsrA).; type: functional
T2 sequence (P54149 whole entry): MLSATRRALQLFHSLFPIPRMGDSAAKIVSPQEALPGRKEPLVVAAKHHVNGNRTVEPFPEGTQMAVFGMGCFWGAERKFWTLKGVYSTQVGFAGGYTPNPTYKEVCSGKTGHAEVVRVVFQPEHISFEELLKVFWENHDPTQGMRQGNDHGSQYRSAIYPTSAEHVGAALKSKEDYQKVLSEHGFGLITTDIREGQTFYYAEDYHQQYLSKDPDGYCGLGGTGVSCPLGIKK

[13] = molecular target: T3, Sentrin-specific protease 8 (Homo sapiens, UniProt Q96LD8); type: functional;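 further: luminescence read-out of SENP8 inhibition, dose-response confirmation following an ultra-high-throughput screen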
T3 sequence (Q96LD8 whole entry): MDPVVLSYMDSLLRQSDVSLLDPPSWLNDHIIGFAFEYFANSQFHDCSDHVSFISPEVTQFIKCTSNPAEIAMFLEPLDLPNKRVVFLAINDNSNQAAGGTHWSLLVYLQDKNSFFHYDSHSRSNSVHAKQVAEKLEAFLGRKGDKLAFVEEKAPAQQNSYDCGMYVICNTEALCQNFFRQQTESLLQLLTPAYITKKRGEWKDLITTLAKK

[14] = molecular target: Caspase-8 (Homo sapiens, UniProt Q14790); assay: inhibitors of purified CASP8 protease – biochemical, Z-IETD-R110 fluorescence, cherry-picked samples, selectivity assay for caspase-6 inhibitor project, dose response (AID 743294)
Caspase-8, sequence (Q14790 217-374 limits assumed): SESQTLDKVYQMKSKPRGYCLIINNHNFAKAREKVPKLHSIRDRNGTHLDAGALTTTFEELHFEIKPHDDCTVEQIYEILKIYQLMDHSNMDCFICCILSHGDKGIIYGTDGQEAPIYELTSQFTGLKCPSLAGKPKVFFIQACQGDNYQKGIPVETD
Caspase-8, sequence (Q14790 385-479 limits assumed): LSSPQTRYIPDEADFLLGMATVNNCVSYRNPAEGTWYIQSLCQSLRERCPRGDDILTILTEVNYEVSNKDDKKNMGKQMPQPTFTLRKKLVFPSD

[15] = molecular target: T4, Sentrin-specific protease 7 (Homo sapiens, UniProt Q9BQF6); type: functional;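 further: Luminescence-based dose-response confirmation of ultra-high-throughput screening hits, measuring inhibition of SENP7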
T4 sequence (Q9BQF6 whole entry): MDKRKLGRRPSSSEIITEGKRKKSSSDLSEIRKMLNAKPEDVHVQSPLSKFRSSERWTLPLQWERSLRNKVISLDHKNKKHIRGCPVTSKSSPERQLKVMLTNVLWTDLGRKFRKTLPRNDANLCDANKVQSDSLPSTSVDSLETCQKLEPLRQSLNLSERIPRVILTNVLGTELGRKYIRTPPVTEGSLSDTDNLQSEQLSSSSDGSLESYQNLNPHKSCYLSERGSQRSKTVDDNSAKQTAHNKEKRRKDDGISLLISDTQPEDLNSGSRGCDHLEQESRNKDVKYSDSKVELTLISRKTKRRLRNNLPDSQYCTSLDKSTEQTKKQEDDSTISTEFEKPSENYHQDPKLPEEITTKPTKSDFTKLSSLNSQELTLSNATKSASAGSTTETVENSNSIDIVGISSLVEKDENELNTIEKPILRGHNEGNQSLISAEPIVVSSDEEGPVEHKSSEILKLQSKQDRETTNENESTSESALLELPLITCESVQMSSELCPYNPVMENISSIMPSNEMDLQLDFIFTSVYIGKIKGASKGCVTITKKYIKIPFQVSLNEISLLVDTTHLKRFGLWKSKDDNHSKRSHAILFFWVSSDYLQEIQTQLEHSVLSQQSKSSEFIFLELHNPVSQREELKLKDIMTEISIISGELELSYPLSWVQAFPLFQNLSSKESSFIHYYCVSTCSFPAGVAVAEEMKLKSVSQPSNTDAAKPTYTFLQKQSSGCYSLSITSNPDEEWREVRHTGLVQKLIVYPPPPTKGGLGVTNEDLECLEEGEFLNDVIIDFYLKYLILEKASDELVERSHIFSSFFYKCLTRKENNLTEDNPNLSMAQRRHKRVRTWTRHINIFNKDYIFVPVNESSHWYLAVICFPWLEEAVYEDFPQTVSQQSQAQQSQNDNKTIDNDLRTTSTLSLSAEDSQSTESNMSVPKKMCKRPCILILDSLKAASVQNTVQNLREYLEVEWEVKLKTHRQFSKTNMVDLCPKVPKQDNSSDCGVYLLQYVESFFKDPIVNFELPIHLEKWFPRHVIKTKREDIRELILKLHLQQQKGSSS

[16] = molecular target: T5, Sentrin-specific protease 6 (Homo sapiens, UniProt Q9GZR1); type: functional;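 further: Luminescence-based dose-response confirmatory assay of SENP6 inhibition, following up an ultra-high-throughput screen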
T5 sequence (Q9GZR1 whole entry): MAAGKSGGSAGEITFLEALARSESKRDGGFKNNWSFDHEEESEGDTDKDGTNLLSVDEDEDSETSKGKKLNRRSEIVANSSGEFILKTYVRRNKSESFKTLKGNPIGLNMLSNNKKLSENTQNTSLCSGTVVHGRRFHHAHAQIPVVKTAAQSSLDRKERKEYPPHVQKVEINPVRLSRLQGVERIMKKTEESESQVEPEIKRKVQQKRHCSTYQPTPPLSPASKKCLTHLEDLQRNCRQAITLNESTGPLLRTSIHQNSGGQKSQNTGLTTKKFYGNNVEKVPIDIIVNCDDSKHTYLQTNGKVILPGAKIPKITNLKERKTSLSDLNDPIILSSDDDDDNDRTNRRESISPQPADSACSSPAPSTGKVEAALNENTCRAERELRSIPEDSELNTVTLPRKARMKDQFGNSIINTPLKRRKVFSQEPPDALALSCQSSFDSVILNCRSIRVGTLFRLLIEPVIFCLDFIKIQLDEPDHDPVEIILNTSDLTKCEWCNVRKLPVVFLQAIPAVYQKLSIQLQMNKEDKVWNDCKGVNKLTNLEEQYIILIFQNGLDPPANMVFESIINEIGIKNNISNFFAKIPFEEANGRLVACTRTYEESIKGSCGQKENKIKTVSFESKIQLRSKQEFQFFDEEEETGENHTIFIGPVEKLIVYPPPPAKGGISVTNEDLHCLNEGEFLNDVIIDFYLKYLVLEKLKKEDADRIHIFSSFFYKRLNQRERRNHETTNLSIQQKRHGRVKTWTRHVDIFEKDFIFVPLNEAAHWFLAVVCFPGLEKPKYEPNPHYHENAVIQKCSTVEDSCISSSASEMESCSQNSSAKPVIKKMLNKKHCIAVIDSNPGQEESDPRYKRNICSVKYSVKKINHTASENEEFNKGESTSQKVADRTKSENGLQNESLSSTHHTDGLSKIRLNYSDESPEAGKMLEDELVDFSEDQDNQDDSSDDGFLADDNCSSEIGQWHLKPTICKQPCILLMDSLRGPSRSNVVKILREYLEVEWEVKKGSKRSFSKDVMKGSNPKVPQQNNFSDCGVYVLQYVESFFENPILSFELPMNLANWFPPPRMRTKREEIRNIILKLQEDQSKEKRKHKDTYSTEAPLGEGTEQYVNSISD

[17] = molecular target: Caspase-7 (Homo sapiens, UniProt P55210); assay: caspase-7 enzyme inhibition, selectivity check – biochemical, DEVD-R110 fluorescence, cherry-pick, selectivity assay for caspase-6 inhibitor project, dose response (AID 743295); type: functional
Caspase-7, sequence (P55210 24-198 limits assumed): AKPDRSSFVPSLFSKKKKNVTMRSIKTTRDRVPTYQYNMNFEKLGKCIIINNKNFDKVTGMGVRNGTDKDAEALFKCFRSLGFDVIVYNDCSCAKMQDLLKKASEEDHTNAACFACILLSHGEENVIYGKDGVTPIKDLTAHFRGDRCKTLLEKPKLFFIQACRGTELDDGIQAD
Caspase-7, sequence (P55210 207-303 limits assumed): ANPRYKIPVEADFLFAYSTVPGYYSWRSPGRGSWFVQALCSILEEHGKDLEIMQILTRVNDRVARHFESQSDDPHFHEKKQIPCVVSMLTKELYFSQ

[18] = molecular target: T6, Caspase-3 (Homo sapiens, UniProt P42574); type: functional;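 further: Dose-response selectivity test against caspase-3 for candidate inhibitors of sentrin-specific proteases (SENPs)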
T6 sequence (P42574 whole entry): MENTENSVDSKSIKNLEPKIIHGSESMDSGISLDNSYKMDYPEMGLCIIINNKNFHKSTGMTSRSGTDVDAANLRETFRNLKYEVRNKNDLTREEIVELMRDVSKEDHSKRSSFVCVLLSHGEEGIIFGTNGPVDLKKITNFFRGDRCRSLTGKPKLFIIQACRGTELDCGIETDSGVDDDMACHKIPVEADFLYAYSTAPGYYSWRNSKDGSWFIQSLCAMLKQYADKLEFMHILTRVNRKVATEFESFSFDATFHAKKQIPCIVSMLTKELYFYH

[19] = molecular target: Caspase-6 (Homo sapiens, UniProt P55212); assay: inhibition of CASP6 peptide cleavage – biochemical, VEID-R110 fluorescence, cherry-pick, dose response (AID 720632)
Caspase-6, sequence (P55212 24-179 limits assumed): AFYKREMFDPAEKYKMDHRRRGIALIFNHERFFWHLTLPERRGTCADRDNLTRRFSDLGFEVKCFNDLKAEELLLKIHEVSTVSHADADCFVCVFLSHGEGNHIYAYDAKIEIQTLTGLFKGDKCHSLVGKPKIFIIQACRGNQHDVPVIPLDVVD
Caspase-6, sequence (P55212 194-293 limits assumed): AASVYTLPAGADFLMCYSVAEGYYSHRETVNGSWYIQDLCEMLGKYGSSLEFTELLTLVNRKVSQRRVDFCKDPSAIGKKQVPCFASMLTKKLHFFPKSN

[20] = general cell-killing toxicity readout – plate reader, dry powder samples, cytotoxicity control for PAX8 inhibitor project, dose response (AID 743021); type: functional, cell-based
[21] = toxicity toward immortalized ovarian surface epithelium – cell-based, plate reader, dry powder samples, cytotoxicity control for PAX8 inhibitor project, dose response (AID 743045); type: functional
[22] = OVCAR8 cell viability loss – plate reader, dry powder samples, PAX8 project, dose response (AID 743197); type: functional, cell-based; details: OVCAR-8
[23] = molecular target: Paired box protein Pax-8 (Homo sapiens, UniProt Q06710); assay: PAX8 transcriptional activity inhibition in RMG-I – RMG-I cells, luciferase, cherry-pick, dose response (AID 687027); type: functional, cell-based;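 further: luciferase reporter driven by Pax8 target thyroperoxidase promoter measured by SteadyGlo luminescence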
Paired box protein Pax-8, sequence (Q06710 whole entry): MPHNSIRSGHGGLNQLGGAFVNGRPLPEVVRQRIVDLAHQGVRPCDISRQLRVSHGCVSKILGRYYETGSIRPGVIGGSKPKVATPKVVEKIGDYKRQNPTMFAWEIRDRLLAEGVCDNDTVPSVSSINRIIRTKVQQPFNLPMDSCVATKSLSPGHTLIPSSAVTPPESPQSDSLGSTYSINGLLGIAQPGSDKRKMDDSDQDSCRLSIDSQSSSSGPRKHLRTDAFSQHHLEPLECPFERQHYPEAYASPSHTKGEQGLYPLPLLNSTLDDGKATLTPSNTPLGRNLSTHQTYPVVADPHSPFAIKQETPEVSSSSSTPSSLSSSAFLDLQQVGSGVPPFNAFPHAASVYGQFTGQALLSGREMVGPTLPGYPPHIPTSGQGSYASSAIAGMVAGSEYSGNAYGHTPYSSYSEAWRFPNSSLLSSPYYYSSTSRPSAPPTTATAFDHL

[24] = molecular target: Metabotropic glutamate receptor 7 (Homo sapiens, UniProt Q14831); assay: potentiation of glutamate EC20 at mGlu7 – cell-based, calcium mobilization, Galpha15, dose response (AID 743384); type: functional
Metabotropic glutamate receptor 7, sequence (Q14831 whole entry): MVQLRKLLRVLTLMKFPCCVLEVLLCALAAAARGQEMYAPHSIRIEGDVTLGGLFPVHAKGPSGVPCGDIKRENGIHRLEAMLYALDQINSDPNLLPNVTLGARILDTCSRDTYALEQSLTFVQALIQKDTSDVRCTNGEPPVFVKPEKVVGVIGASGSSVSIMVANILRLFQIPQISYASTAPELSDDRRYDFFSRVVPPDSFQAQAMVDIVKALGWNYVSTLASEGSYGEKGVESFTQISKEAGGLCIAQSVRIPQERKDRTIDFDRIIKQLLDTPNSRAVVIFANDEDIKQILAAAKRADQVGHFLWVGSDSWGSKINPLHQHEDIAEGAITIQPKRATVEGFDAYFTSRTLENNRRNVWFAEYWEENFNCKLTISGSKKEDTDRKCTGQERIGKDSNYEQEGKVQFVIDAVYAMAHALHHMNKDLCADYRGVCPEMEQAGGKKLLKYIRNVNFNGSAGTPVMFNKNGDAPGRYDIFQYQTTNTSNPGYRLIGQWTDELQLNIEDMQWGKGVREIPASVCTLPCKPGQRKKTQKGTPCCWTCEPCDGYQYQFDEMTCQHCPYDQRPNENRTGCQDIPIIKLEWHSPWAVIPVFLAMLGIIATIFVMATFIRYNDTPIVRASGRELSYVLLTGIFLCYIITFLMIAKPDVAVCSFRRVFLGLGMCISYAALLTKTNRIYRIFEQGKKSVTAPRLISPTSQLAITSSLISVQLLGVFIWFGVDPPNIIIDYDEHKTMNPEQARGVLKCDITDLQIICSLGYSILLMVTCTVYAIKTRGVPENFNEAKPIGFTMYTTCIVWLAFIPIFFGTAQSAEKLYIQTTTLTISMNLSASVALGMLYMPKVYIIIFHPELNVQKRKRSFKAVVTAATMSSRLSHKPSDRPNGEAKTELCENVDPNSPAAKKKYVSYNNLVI

SMILES: O=C(C1CCC1)N1C[C@@H]2N[C@H](C1)[C@@H]2c1ccc(/C=C/c2ccccc2)cc1
AC50 [1]: 11.5 µM (active)
AC50 [2]: 3.76 µM (active)

IC50 [3]: > 100 µM (active)
IC50 [4]: > 100 µM (inactive)
SMILES: Cc1ccc(OCCSc2nnc(-c3ccncc3)n2C)cc1

SMILES: N#C[C@H]1N[C@H](CO)[C@@H]1c1ccc(C#Cc2ccccc2F)cc1
AC50 [5]: 30.1 µM (active)
AC50 [6]: > 70 µM (inactive)
AC50 [7]: 45.2 µM (active)
AC50 [8]: > 70 µM (inactive)
AC50 [9]: 49.8 µM (active)

SMILES: O=C(NCCN1CCC2(CC1)C(=O)NCN2Cc1ccc(Cl)cc1)c1ccc2ccccc2c1
IC50 [10]: 1.54 µM (active)
IC50 [11]: 6.78 µM (active)

EC50 [12]: 17.4 µM (inactive)
AC50 [14]: 19.6 µM (active)
IC50 [15]: 92 µM (active)
IC50 [16]: 52.9 µM (active)
AC50 [17]: 20 µM (active)
IC50 [18]: 96.6 µM (active)
AC50 [19]: 3.32 µM (active)
SMILES: O=C1CN(C(=O)COC(=O)c2ccc([N+](=O)[O-])s2)c2ccccc2N1
IC50 [13]: 47.9 µM (active)

SMILES: Cc1ccc(S(=O)(=O)Nc2ccc3c(c2)C(=O)N([C@H](C)CO)C[C@H](C)[C@H](CN(C)Cc2ccc(C(F)(F)F)cc2)OCCCC[C@H](C)O3)cc1
AC50 [20]: 41.7 µM (active)
AC50 [21]: 46.2 µM (active)
AC50 [22]: 24.7 µM (active)
AC50 [23]: 9.98 µM (active)
AC50 [9]: 19.4 µM (active)

EC50 [24]: 10 µM (active)
SMILES: COC(=O)c1ccc(-n2c(C)cc(C(=O)CSc3ccc(N(C)C(C)=O)cc3)c2C)cc1
